In patent US20170007615A1, “Antibacterial Compounds” (priority 2014, published 2017):
≈ marks a conversion by molar mass, not a printed value. Like-named read-outs stand apart in the source and are kept apart here.

Key:
Assay in all cases: Antibacterial activity (MIC) against drug resistant clinical isolates, alone and with PMBN
Assay type in all cases: cell-based
[1] = test system: E. coli drug resistant clinical isolates; details: for MIC: Escherichia coli, read-out: MIC Compound alone
[2] = test system: P. aeruginosa drug resistant clinical isolates; details: for MIC: Pseudomonas aeruginosa, read-out: MIC Compound alone
[3] = test system: A. baumannii drug resistant clinical isolates

MIC of Compound (μg/ml) in the presence of PMBN (128 μg/ml) ([1]; E. coli (BAA200)): ≦0.008 μg/ml | MIC of Compound (μg/ml) in the presence of PMBN (128 μg/ml) ([1]; E. coli (MMX 1312)): ≦0.008 μg/ml | MIC of Compound (μg/ml) in the presence of PMBN (128 μg/ml) ([1]; E. coli (MMX 2232)): ≦0.008 μg/ml | MIC of Compound (μg/ml) in the presence of PMBN (128 μg/ml) ([1]; E. coli (MMX 5743)): ≦0.008 μg/ml | MIC of Compound (μg/ml) in the presence of PMBN (128 μg/ml) ([1]; E. coli (MMX 5771)): ≦0.12 μg/ml | MIC of Compound (μg/ml) in the presence of PMBN (128 μg/ml) ([1]; E. coli (MMX 6413)): ≦0.12 μg/ml | MIC of Compound (μg/ml) in the presence of PMBN (128 μg/ml) ([1]; E. coli (NCTC11954)): ≦0.008 μg/ml | MIC of Compound (μg/ml) in the presence of PMBN (128 μg/ml) ([1]; E. coli (NCTC13351)): ≦0.12 μg/ml | MIC of Compound (μg/ml) in the presence of PMBN (128 μg/ml) ([1]; E. coli (NCTC13352)): ≦0.008 μg/ml | MIC of Compound (μg/ml) in the presence of PMBN (128 μg/ml) ([1]; E. coli (NCTC13353)): ≦0.008 μg/ml | MIC of Compound (μg/ml) in the presence of PMBN (128 μg/ml) ([1]; E. coli (NCTC13400)): ≦0.008 μg/ml | MIC of Compound (μg/ml) in the presence of PMBN (128 μg/ml) ([1]; E. coli (NCTC13441)): ≦0.12 μg/ml | MIC of Compound (μg/ml) in the presence of PMBN (128 μg/ml) ([1]; E. coli (NCTC13450)): ≦0.12 μg/ml | MIC of Compound (μg/ml) in the presence of PMBN (128 μg/ml) ([1]; E. coli (NCTC13461)): ≦0.12 μg/ml | MIC of Compound (μg/ml) in the presence of PMBN (128 μg/ml) ([1]; E. coli (NCTC13462)): ≦0.008 μg/ml | MIC of Compound (μg/ml) in the presence of PMBN (128 μg/ml) ([1]; E. coli (NCTC13463)): ≦0.008 μg/ml | MIC of Compound (μg/ml) in the presence of PMBN (128 μg/ml) ([1]; E. coli (NCTC13476)): ≦0.12 μg/ml | MIC ([1]; BAA200, E. coli (BAA200)): > 4 µg/mL | MIC ([1]; E. coli (MMX 1312)): 16 µg/mL (≈ 30.4 µM) | MIC ([1]; E. coli (MMX 2232)): 16 µg/mL (≈ 30.4 µM) | MIC ([1]; E. coli (MMX 5743)): 4 µg/mL (≈ 7.61 µM) | MIC ([1]; E. coli (MMX 5771)): > 64 µg/mL | MIC ([1]; E. coli (MMX 6413)): > 64 µg/mL | MIC ([1]; NCTC11954, E. coli (NCTC11954)): 2 µg/mL (≈ 3.8 µM) | MIC ([1]; NCTC13351, E. coli (NCTC13351)): > 64 µg/mL | MIC ([1]; NCTC13352, E. coli (NCTC13352)): 4 µg/mL (≈ 7.61 µM) | MIC ([1]; NCTC13353, E. coli (NCTC13353)): 1 µg/mL (≈ 1.9 µM) | MIC ([1]; NCTC13400, E. coli (NCTC13400)): > 4 µg/mL | MIC ([1]; NCTC13441, E. coli (NCTC13441)): > 64 µg/mL | MIC ([1]; NCTC13450, E. coli (NCTC13450)): > 64 µg/mL | MIC ([1]; NCTC13461, E. coli (NCTC13461)): > 64 µg/mL | MIC ([1]; NCTC13462, E. coli (NCTC13462)): > 4 µg/mL | MIC ([1]; NCTC13463, E. coli (NCTC13463)): 2 µg/mL (≈ 3.8 µM) | MIC ([1]; NCTC13476, E. coli (NCTC13476)): 8 µg/mL (≈ 15.2 µM) | MIC of Compound (μg/ml) in the presence of PMBN (128 μg/ml) ([2]; P. aeruginosa (MMX3007)): 0.03 µg/mL | MIC of Compound (μg/ml) in the presence of PMBN (128 μg/ml) ([2]; P. aeruginosa (MMX3022)): 0.03 µg/mL | MIC of Compound (μg/ml) in the presence of PMBN (128 μg/ml) ([2]; P. aeruginosa (MMX3025)): 0.03 µg/mL | MIC of Compound (μg/ml) in the presence of PMBN (128 μg/ml) ([2]; P. aeruginosa (MMX3026)): ≦0.008 μg/ml | MIC of Compound (μg/ml) in the presence of PMBN (128 μg/ml) ([2]; P. aeruginosa (MMX4700)): 0.12 µg/mL | MIC of Compound (μg/ml) in the presence of PMBN (128 μg/ml) ([2]; P. aeruginosa (NCTC13437)): 0.016 µg/mL | MIC ([2]; NCTC13437, P. aeruginosa (NCTC13437)): 16 µg/mL (≈ 30.4 µM) | MIC ([2]; P. aeruginosa (MMX3007)): > 16 µg/mL | MIC ([2]; P. aeruginosa (MMX3022)): 8 µg/mL (≈ 15.2 µM) | MIC ([2]; P. aeruginosa (MMX3025)): > 16 µg/mL | MIC ([2]; P. aeruginosa (MMX3026)): > 16 µg/mL | MIC ([2]; P. aeruginosa (MMX4700)): 16 µg/mL (≈ 30.4 µM) | MIC of Compound (μg/ml) in the presence of PMBN (128 μg/ml) ([3]; A. baumannii (MMX 2585)): 0.12 µg/mL | MIC of Compound (μg/ml) in the presence of PMBN (128 μg/ml) ([3]; A. baumannii (MMX 2598)): 0.06 µg/mL | MIC of Compound (μg/ml) in the presence of PMBN (128 μg/ml) ([3]; A. baumannii (MMX 2600)): 0.06 µg/mL | MIC of Compound (μg/ml) in the presence of PMBN (128 μg/ml) ([3]; A. baumannii (MMX 4405)): 0.12 µg/mL
Compound: CCNC(=O)Nc1nc2cc(-c3cnc(NS(=O)(=O)C(C)(C)C)nc3)cc(-c3ccc(C)cn3)c2s1 [Compound A-13, 1-[5-[2-(tert-Butylsulfonylamino)pyrimidin-5-yl]-7-(5-methyl-2-pyridyl)-1,3-benzothiazol-2-yl]-3-ethyl-urea]
